Where two headings read alike, the source gives them in different places. Where only a bound is given, the exact number is not on record here.

The values that follow come from EP1226131B1, “ISOXAZOLECARBOXAMIDE DERIVATIVES” (RECORDATI INDUSTRIA CHIMICA E FARMACEUTICA S.p.a., priority 1999, dated 2001).

Series [1] has as its system urethral contractions (UP) induced by noradrenaline (NA). The series is described as follows: Urethral contractions induced by noradrenaline injection in anaesthetised dogs, i.v. administration. Format: in vivo. Particulars: dog; for ED50: Canis lupus familiaris, iv, dose inhibiting by 50% urethral contractions induced by noradrenaline, read-out: UP ID50 NA; for R1 (DBP/NA): ratio DBP ED25 / UP ID50 NA. As for the experimental part:
(§1) The experiments were performed according to the method of Imagawa J. et al., J Pharmacol. Methods 22, 103-111 (1989), with substantial modifications, as follows: adult male beagle dogs, weighing 8-10 kg, were anaesthetised with pentobarbital sodium (30 mg/kg i.v. and 2 mg/kg/h i.v.), intubated and spontaneously ventilated with room air. In order to monitor systemic blood pressure (BP), a polyethylene (PE) catheter was introduced into the aortic arch through the left femoral artery. A collateral of the left femoral vein was cannulated for infusion of anaesthetic, and the right femoral vein was cannulated for administration of the compounds. For intraarterial (i.a.) injection of noradrenaline (NA), a PE catheter was introduced into the lower portion of the abdominal aorta via the right external iliac artery. Through such procedure, NA was selectively distributed to the lower urinary tract. A paramedian vertical suprapubic incision extending from the base of the pelvis to the mid-abdominal region was made and the bladder and the prostate were exposed. The bladder was manually emptied with a syringe. […] The distal end of the right or left branch of the nerve was placed on a bipolar platinum electrode. Prostatic urethral pressure was monitored with a Mikro-tip cathe[…]) introduced into the bladder via the external urethral meatus, and withdrawn until the pressure transducer was positioned in the prostatic region of the urethra. A ligature was secured between the neck of the bladder and urethra to isolate the response of the latter and to avoid any interaction with the bladder. Another ligature was put around the Mikro-tip catheter at the external meatus, to secure the catheter itself. […] Both i.a. injections of NA and stimulations of the hypogastric nerve were repeated 5 minutes after every dosing of test compound with intervals of about 5 minutes between two stimulations. In order to compare the effects of the administered compound, dose/response curves were constructed by computing, at the peak effect, the percent decrease in diastolic blood pressure and the percent inhibition of the increase in urethral pressure induced by both types of stimulation used.

Series [2] has as its system diastolic blood pressure (DBP). The series is described as follows: Effect on diastolic blood pressure in anaesthetised dogs, i.v. administration. Format: in vivo. Particulars: dog, dose inducing a 25% decrease in diastolic blood pressure, one value spanning c3 and c4. As for the experimental part: The experiments were performed according to the method of Imagawa J. et al., J Pharmacol. Methods 22, 103-111 (1989), with substantial modifications, as follows: adult male beagle dogs, weighing 8-10 kg, were anaesthetised with pentobarbital sodium (30 mg/kg i.v. and 2 mg/kg/h i.v.), intubated and spontaneously ventilated with room air. In order to monitor systemic blood pressure (BP), a polyethylene (PE) catheter was introduced into the aortic arch through the left femoral artery. A collateral of the left femoral vein was cannulated for infusion of anaesthetic, and the right femoral vein was cannulated for administration of the compounds. For intraarterial (i.a.) injection of noradrenaline (NA), a PE catheter was introduced into the lower portion of the abdominal aorta via the right external iliac artery. Through such procedure, NA was selectively distributed to the lower urinary tract. A paramedian vertical suprapubic incision extending from the base of the pelvis to the mid-abdominal region was made and the bladder and the prostate were exposed. The bladder was manually emptied with a syringe. […] The distal end of the right or left branch of the nerve was placed on a bipolar platinum electrode. Prostatic urethral pressure was monitored with a Mikro-tip catheter (5F) introduced into the bladder via the external urethral meatus, and withdrawn until the pressure transducer was positioned in the prostatic region of the urethra. A ligature was secured between the neck of the bladder and urethra to isolate the response of the latter and to avoid any interaction with the bladder. Another ligature was put around the Mikro-tip catheter at the external meatus, to secure the catheter itself. The hypogastric nerve stimulation was made with a train of rectangular pulses of 10-15 V, 10-30 Hz, width 5 msec, 8 sec duration.
After a stabilising period following the surgical procedure (30 minutes), in which arterial and prostatic urethral pressure were continuously monitored as basal values, i.a. administration of NA and stimulation of the hypogastric nerve were alternately made at intervals of 10 minutes.
The dose of NA and the parameter of hypogastric nerve stimulation chosen were such as to produce an increase of at least 100% in urethral pressure. The test compounds were administered i.v. in a cumulative manner with intervals of 15-20 min between administrations. Both i.a. injections of NA and stimulations of the hypogastric nerve were repeated 5 minutes after every dosing of test compound with intervals of about 5 minutes between two stimulations. […]

Series [3] has as its target T1, recombinant α1d-adrenoceptor (Homo sapiens, UniProt P25100).
T1 sequence (P25100 1-572): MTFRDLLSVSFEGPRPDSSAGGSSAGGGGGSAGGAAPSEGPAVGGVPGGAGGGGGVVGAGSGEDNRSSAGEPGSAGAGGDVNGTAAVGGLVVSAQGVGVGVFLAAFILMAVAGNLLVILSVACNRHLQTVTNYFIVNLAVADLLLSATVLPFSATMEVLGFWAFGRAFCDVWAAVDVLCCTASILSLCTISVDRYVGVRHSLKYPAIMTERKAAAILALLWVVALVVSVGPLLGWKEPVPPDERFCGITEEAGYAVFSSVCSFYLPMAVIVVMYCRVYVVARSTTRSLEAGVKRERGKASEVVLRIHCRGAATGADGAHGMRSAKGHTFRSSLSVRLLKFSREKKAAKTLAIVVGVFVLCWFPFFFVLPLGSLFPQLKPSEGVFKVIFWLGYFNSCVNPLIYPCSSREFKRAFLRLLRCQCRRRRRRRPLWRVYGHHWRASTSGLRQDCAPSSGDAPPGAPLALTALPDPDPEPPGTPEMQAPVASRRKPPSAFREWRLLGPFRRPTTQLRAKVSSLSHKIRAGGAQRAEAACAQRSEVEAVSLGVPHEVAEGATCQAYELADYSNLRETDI
The series is described as follows: Radioligand binding assay ([3H]prazosin) on cloned α1-adrenoceptor subtype, membranes of transfected cells.
Protocol: (§2) Determination of affinity for cloned subtypes of the cloned α1-adrenoceptor was performed in membranes from cells transfected by electroporation with DNA expressing the genes encoding each α1-adrenoceptor subtype.
(§3) Non-specific binding was determined in the presence of 10 µM phentolamine. Incubation was stopped by addition of ice-cold Tris buffer and rapid filtration through 0.2%-polyethyleneimine pretreated Schleicher & Schuell GF52 filters. […] The homogenates were centrifuged at 40000 × g × 20 minutes and the membranes were resuspended in a small volume of ice-cold buffer containing Tris 5 mM and EDTA 5 mM (pH 7.4) and immediately frozen and stored at -70°C until use.

The target in the next series is T2, α1a adrenergic receptor (Homo sapiens, UniProt P35348).
T2 sequence (P35348 1-466): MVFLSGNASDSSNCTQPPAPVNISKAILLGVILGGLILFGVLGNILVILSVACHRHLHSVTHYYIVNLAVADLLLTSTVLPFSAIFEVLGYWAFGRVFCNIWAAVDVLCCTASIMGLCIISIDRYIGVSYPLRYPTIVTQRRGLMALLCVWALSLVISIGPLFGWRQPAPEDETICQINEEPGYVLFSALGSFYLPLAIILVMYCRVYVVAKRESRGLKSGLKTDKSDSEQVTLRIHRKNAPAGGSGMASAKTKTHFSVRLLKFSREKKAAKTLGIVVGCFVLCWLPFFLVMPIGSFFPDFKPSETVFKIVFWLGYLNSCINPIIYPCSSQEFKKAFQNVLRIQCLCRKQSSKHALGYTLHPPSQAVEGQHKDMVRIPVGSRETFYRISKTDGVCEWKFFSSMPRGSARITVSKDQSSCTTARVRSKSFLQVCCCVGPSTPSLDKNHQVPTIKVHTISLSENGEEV
Described as above.

The target of series [4] is T3, human 5-HT1A-serotoninergic receptor (Homo sapiens, UniProt P08908).
T3 construct: expressed in transfected cells; host or cells: HeLa
T3 sequence (P08908 1-422): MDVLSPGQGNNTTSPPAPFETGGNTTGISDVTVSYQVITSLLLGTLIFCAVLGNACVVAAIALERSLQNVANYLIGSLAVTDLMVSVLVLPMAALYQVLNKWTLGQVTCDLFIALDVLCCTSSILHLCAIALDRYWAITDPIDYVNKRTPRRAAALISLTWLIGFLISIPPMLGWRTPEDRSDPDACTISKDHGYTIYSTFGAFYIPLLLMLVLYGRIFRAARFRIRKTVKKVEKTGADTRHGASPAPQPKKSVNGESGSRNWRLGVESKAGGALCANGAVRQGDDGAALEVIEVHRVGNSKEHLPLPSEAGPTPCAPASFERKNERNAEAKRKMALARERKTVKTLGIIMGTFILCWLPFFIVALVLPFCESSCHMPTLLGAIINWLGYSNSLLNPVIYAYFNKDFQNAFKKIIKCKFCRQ
The series is described as follows: Radioligand binding assay ([3H]8-OH-DPAT) on membranes of transfected HeLa cells. Particulars: human receptor in HeLa cells, read-out: Affinity (Ki, nM) 5-HT1A. The text has this:
Data were expressed as mean of Ki.

In series [5] the test system is urethral contractions (UP) induced by hypogastric-nerve stimulation (HYP). The experiment in a line: Urethral contractions induced by hypogastric-nerve stimulation in anaesthetised dogs, i.v. administration. Format: in vivo. Particulars: Canis lupus familiaris, iv, dog, dose inhibiting by 50% urethral contractions induced by hypogastric-nerve stimulation, read-out: UP ID50 HYP. As for the experimental part:
as §1, with “In order to compare the effects of the administered compound, dose/response curves were constructed by computing, at the peak effect, the percent decrease in diastolic blood pressure and the percent inhibition of the increase in urethral pressure induced by both types of stimulation used.” left out

Where [6] appears, read: read-out: Affinity (Ki, nM) α1d, recombinant receptor, [3H]prazosin.

Protocol for α1a adrenergic receptor: as §2, §3

Usually Ki stands for a measure of affinity in units of concentration, obtained from inhibition or displacement. Turning to `COc1ccc(Cl)cc1N1CCN(CCCNC(=O)c2c(-c3ccccc3)noc2C)CC1` [Example 1, N-{3-[4-(5-Chloro-2-methoxyphenyl)-1-piperazinyl]-propyl}-5-methyl-3-phenylisoxazole-4-carboxamide], in series [1], the ED50 was 3.4 µg/kg and the “R1 (DBP/NA)” value came to 101.6. In series [2], the “DBP ED25” value was 345.4 µg/kg. Also, in series [3] (setting [6]), the inhibition constant Ki is 2.72 nM.
In the case of `Cc1onc(-c2ccccc2)c1C(=O)NCCCN1CCN(c2cc(Cl)ccc2O)CC1` [Example 2, N-{3-[4-(5-Chloro-2-hydroxyphenyl)-1-piperazinyl]-propyl}-5-methyl-3-phenylisoxazole-4-carboxamide], the Ki was found to be 1.16 nM on α1a adrenergic receptor and 25.2 nM in series [3].
On to `COc1ccc(OCC(F)(F)F)cc1N1CCN(CCCNC(=O)c2c(-c3ccccc3)noc2C)CC1` [Example 4, N-{3-[4-[2-Methoxy-5-(2,2,2-trifluoroethoxy)phenyl]-1-piperazinyl]-propyl}-5-methyl-3-phenylisoxazole-4-carboxamide], for which the values for the Ki (on α1a adrenergic receptor; in series [4]; in series [3]) were 17 nM, over 1000 nM and 128 nM, respectively.
Regarding `Cc1onc(-c2ccccc2)c1C(=O)NCCCN1CCN(c2ccc(F)cc2OCC(F)(F)F)CC1` [Example 6, N-{3-[4-[4-Fluoro-2-(2,2,2-trifluoroethoxy)-phenyl]-1-piperazinyl]-propyl}-5-methyl-3-phenylisoxazole-4-carboxamide], the ED50 in series [5] amounted to 4.5 µg/kg. For the same compound, in series [1], the ED50 is 2.4 µg/kg and the “R1 (DBP/NA)” value worked out at 82. Besides, in series [2], the “DBP ED25” value came out at 196.7 µg/kg. For the same compound, the inhibitory constant (Ki) in series [3] (setting [6]) came to 18.9 nM.
Turning to `Cc1onc(-c2ccccc2)c1C(=O)NCCCN1CCN(c2cc(Cl)ccc2OS(=O)(=O)C(F)(F)F)CC1` [Example 7, N-{3-[4-[(5-Chloro-2-trifluoromethanesulphonyloxy)-phenyl]-1-piperazinyl]-propyl}-5-methyl-3-phenylisoxazole-4-carboxamide], the Ki at α1a adrenergic receptor was 0.918 nM; in series [4], 1000 nM; in series [3], 38.9 nM.
Turning to `O=C(NCCCN1CCN(c2ccc(F)cc2OCC(F)(F)F)CC1)c1conc1-c1ccc(F)cc1` [Example 8, 3-(4-Fluorophenyl)-N-{3-[4-[4-fluoro-2-(2,2,2-trifluoroethoxy)-phenyl]-1-piperazinyl]-propyl}-isoxazole-4-carboxamide], the results for the inhibitory constant (Ki) (at α1a adrenergic receptor; in series [3]) were 0.11 nM and 25.8 nM, respectively.
In the same order, the values of `Cc1onc(-c2c(F)cccc2Cl)c1C(=O)NCCCN1CCN(c2ccc(F)cc2OCC(F)(F)F)CC1` [Example 9, 3-(2-Chloro-6-fluorophenyl)-N-{3-[4-[4-fluoro-2-(2,2,2-trifluoroethoxy)-phenyl]-1-piperazinyl]-propyl}-5-methylisoxazole-4-carboxamide] are 0.4 nM and 6.15 nM.
In the same order, the values of `Cc1onc(-c2c(Cl)cccc2Cl)c1C(=O)NCCCN1CCN(c2ccc(F)cc2OCC(F)(F)F)CC1` [Example 10, 3-(2,6-Dichlorophenyl)-N-{3-[4-[4-fluoro-2-(2,2,2-trifluoroethoxy)-phenyl]-1-piperazinyl]-propyl}-5-methylisoxazole-4-carboxamide.] are 2.28 nM and 38.6 nM.
In the same order, the values of `Cc1onc(-c2ccccc2Cl)c1C(=O)NCCCN1CCN(c2ccc(F)cc2OCC(F)(F)F)CC1` [Example 11] are 0.12 nM and 4.66 nM.
For `Cc1onc(-c2c(F)cccc2Cl)c1C(=O)NCCCN1CCN(c2ccccc2OCC(F)(F)F)CC1` [Example 12, 3-(2-Chloro-6-fluorophenyl)-5-methyl-N-{3-[4-[2-(2,2,2-trifluoroethoxy)phenyl)-1-piperazinyl]-propyl}-isoxazole-4-carboxamide], the Ki at α1a adrenergic receptor was determined as 0.16 nM; in series [3], 2.19 nM.
